Measurements taken from US20030224398A1, “Purification of the leading front of migratory cells” (priority 2002, published 2003).

Key:
NIH 3T3 cells [1] = assay: Cell migration through 8.0-μm porous Boyden chambers, gradient or uniform chemokine; format: cell-based, mouse; conditions: for chemoattractant activity (directed cell migration toward a gradient) / random cell migration: NIH 3T3, 8.0-μm pores; for chemoattractant activity (directed cell migration toward a gradient): 3 h; for random cell migration: uniform concentration
Method: (§1) Pseudopodia extension was monitored using a pseudopodia assay kit (ECM 650; Chemicon International) or Costar chambers. Serum-starved cells (75,000) were placed into the upper compartment of a chamber ([…]) equipped with a 3.0-μm porous polycarbonate membrane coated on both sides with an optimal amount of ECM protein (5 μg/ml fibronectin or collagen type I). Cells were allowed to attach and spread on the upper surface of the membrane for 2 h, and then stimulated with LPA (Sigma-Aldrich), insulin, or buffer only, which was placed in the lower chamber to establish a gradient or placed in the upper and lower chamber to form a uniform concentration. Cells were allowed to extend pseudopodia through the pores toward the direction of the gradient for various times. To initiate pseudopodia retraction, the chemoattractant was removed or an equivalent amount of chemoattractant placed in the upper chamber to create a uniform concentration. The cell body on the upper surface was manually removed with a cotton swab and the total pseudopodia protein only on the undersurface was determined using BCA and a microprotein assay system (Pierce Chemical Co.). Additionally, pseudopodia can be stained with 1% crystal violet in 2% ethanol and then the dye eluted with 10% acetic acid, which can be measured in an ELISA plate reader (OD 600) for comparison to a standard curve as previously described (Klemke et al., 1998).
(§2) NIH 3T3 cells were examined for cell migration for 3 h in 8.0-μm porous Boyden chambers containing different concentrations of LPA or insulin placed in 1) the bottom, 2) top, or 3) top and bottom compartments. The number of migratory cells per microscopic field (200×) on the underside of the membrane was counted as described in Example 1 above. Additionally, COS-7 cells were examined for cell migration as described above with respect to NIH 3T3 cells. […] In FIG. 1, each point on the graphs represents the mean±SEM of three triplicate migration chambers of three independent experiments.

NIH 3T3 cells [2] = assay: Pseudopodia extension through 3.0-μm porous membranes toward LPA; format: cell-based, mouse; conditions: 3.0-μm pores
Method: as §1
NIH 3T3 cells were allowed to attach to fibronectin coated 3.0-μm porous membranes for 2 h. Pseudopodia extension was then examined for various times in the absence (NT) or presence of LPA (100 ng/ml) in the bottom, top, or top and bottom compartments. Pseudopodia protein on the underside of the membrane was determined as described in Example 1. Results are set forth in FIG. 2, where each point in the graphs represents the mean±SEM of three triplicate membranes of three independent experiments. COS-7 cells were examined for pseudopodia protrusion in the same manner as for NIH 3T3 cells as described above.
Confocal images of NIH 3T3 pseudopodia protrusion on the undersurface of a 3.0-μm porous membrane in response to LPA (100 ng/ml) as a gradient (LPA bottom) or uniform concentration (LPA top and bottom) were generated. Cells were labeled with cell tracker green and then fixed at the indicated times to visualize protruding pseudopodia on the undersurface of the membrane.

NIH 3T3 cells [3] = assay: Pseudopodia retraction after removal of the LPA gradient; format: cell-based, mouse
Method: as §1
Pseudopodia retraction was studied via the following methods. Pseudopodia extension of NIH 3T3 cells through 3.0-μm pores toward an LPA gradient was examined at 60, 120, 180 and 240 minutes, or the LPA gradient was removed after 60 min and pseudopodia were allowed to retract for the indicated times (LPA Removed). Total pseudopodia protein on the underside of the membrane was determined as described in Example 1.
Pseudopodia were allowed to extend for 60 min (time 0) toward an LPA gradient as described above. The gradient was then removed and pseudopodia were fixed at the indicated times (0, 30, 60, 120 minutes). […]

COS-7 cells = assay: Cell migration through 8.0-μm porous Boyden chambers, gradient or uniform chemokine; format: cell-based; conditions: for chemoattractant activity (directed cell migration toward a gradient) / random cell migration: COS-7, 8.0-μm pores; for random cell migration: uniform concentration
Method: as §1, §2

[4] = listed as lysophosphatidic acid
[5] = LPA gradient removed after 60 min extension

| Substance | chemoattractant activity (directed cell migration toward a gradient) (NIH 3T3 cells [1]) | chemoattractant activity (directed cell migration toward a gradient) (NIH 3T3 cells [1]; listed as LSA) | chemoattractant activity (directed cell migration toward a gradient) (NIH 3T3 cells [1]; [4]) | random cell migration (NIH 3T3 cells [1]) | concentration at which chemotaxis reached a maximum (NIH 3T3 cells [1]; NIH 3T3, dose dependent) [ng/mL] | pseudopodia extension, gradient versus uniform concentration (NIH 3T3 cells [2]; LPA gradient but not uniform concentration) | time at which extension of pseudopodia was first detected after exposure to the gradient (NIH 3T3 cells [2]; LPA gradient) [min] | time over which pseudopodia extension proceeded linearly (NIH 3T3 cells [2]; LPA gradient) [min] | cells polarized by extending pseudopodia (NIH 3T3 cells [2]; LPA gradient, confocal microscope) [%] | cells displaying pseudopodia retraction (NIH 3T3 cells [3]; [5]) [%] | onset of pseudopodia retraction after removing the gradient (NIH 3T3 cells [3]; [5]) [min] | effect of restoring the gradient on retracting pseudopodia (NIH 3T3 cells [3]; LPA gradient restored after removal) | chemoattractant activity (directed cell migration toward a gradient) (COS-7 cells) | chemoattractant activity (directed cell migration toward a gradient) (COS-7 cells; listed as LSA) | chemoattractant activity (directed cell migration toward a gradient) (COS-7 cells; [4]) | random cell migration (COS-7 cells) | concentration at which chemotaxis reached a maximum (COS-7 cells; COS-7, dose dependent) [ng/mL] |
| --- | --- | --- | --- | --- | --- | --- | --- | --- | --- | --- | --- | --- | --- | --- | --- | --- | --- |
| lysophosphatidic acid [LPA] | true chemoattractant | potent chemoattractant | potent chemoattractant | does not facilitate random cell migration | 100 to 200 | extend pseudopodia through small pores specifically in the direction of the gradient | 10 to 15 | 60 to 90 | > 90 | > 80 | ≤ 5 | inhibited the retraction process and induced pseudopodia growth | true chemoattractant | potent chemoattractant | potent chemoattractant | does not facilitate random cell migration | 100 to 200 |
| insulin | poor chemoattractant | – | – | promoted random migration | – | – | – | – | – | – | – | – | poor chemoattractant | – | – | promoted random migration | – |
